How the values were obtained:
[1] = tested on: MDA-MB-231 human breast cancer cells; experiment: MDA-MB-231 cells in 3D non-adherent PEG diacrylate matrix (stem sub-population), cell viability and tumorsphere number; type: cell-based
CD44 = experiment: Expression of CSC marker CD44 in MDA-MB-231 cells in 3D non-adherent matrix; type: cell-based, human
Procedure: (§1) MDA-MB-231 human breast cancer cells were cultured on 2D adherent polystyrene culture plates that enriched the differentiated cell sub-population (CDC) and in 3D polyethylene glycol diacrylate crosslinked non-adherent matrix that enriches the stem sub-population (CSC). FIGS. 4A-4D compare cell content and the expression of CD44, ABCG2, and EGFR markers as a function of time.
(§2) FIG. 6A and FIG. 6B show the expression of CSC markers CD44 and EGFR, respectively, of MDA-MB-231 (MDA) human breast cancer cells grown in a 3D non-adherent matrix, as described in Example 1 above, after exposure to free Paclitaxel (PTX) or PTX conjugated to POSS nanoparticles (PTXconjPOSS) as a function of incubation time.

[2] = tested on: MDA-MB-231 human breast cancer cells; experiment: MDA-MB-231 cells on 2D adherent polystyrene culture plates (differentiated sub-population), cell viability; type: cell-based
Procedure: as §1
FIGS. 5A-5D show the response of the MDA-MB-231 human breast cancer cells cultured in 2D adherent plates and 3D non-adherent matrix to treatment with Doxorubicin (DOX) cancer drug. For the 2D culture, cell viability decreased exponentially as the drug concentration increased (FIG. 5A) and reached about 5% as the drug concentration was increased to 5 μM.

EGFR = experiment: Expression of stem cell marker EGFR in MDA-MB-231 cells in 3D non-adherent matrix; type: cell-based, human; conditions: as a function of incubation time (FIG. 6B)
Procedure: as §1, §2

SMILES	number of tumorspheres ([1]; 3D matrix, 0.5 μM DOX concentration (FIG. 5C))	number of tumorspheres, % of the initial number ([1]; 3D matrix, DOX concentration above 0.5 μM (FIG. 5C))	cell viability ([1]; 3D matrix, drug concentration 0.5 μM (FIG. 5B))	effectiveness against cells in 3D non-adherent matrix ([1]; 3D non-adherent matrix, stem cell sub-population dominates (FIGS. 5B-5D))	viability at 5 µM ([1]; Homo sapiens, MDA-MB-231, 3D matrix, 5 μM DOX concentration (FIG. 5B))	expression of CSC marker CD44 (CD44; 3D matrix, higher DOX concentrations (FIG. 5D))	cells removed ([2]; 2D culture (FIG. 5A))	viability at 5 µM ([2]; Homo sapiens, MDA-MB-231, 2D culture, drug concentration 5 μM (FIG. 5A))	expression of EGFR (EGFR)	expression of CD44 (CD44; 3D non-adherent matrix, as a function of incubation time (FIG. 6A))	toxicity to CSCs (CD44; concluded from CD44 and EGFR expression in 3D non-adherent matrix)	effectiveness against the differentiated sub-population of cancer cells ([2]; no data shown)
COc1cccc2c1C(=O)c1c(O)c3c(c(O)c1C2=O)C[C@@](O)(C(=O)CO)C[C@@H]3O[C@H]1C[C@H](N)[C@H](O)[C@H](C)O1 [DOX, Doxorubicin]	first increased	85%	first increased	not effective	35%	dramatically increased	95%	~5%				
CC(=O)O[C@H]1C(=O)[C@@]2(C)[C@H]([C@H](OC(=O)c3ccccc3)[C@]3(O)C[C@H](OC(=O)[C@H](O)[C@@H](NC(=O)c4ccccc4)c4ccccc4)C(C)=C1C3(C)C)[C@]1(OC(C)=O)CO[C@@H]1C[C@@H]2O [PTX, Paclitaxel]									very high expression	very high expression	not toxic to CSCs	effective
